Results on seven molecules are retold here after patent publication US5258406A, “Sulfonimidamides” (priority 1992, dated 1993).

The subject of data set [1] is 6C3HED lymphosarcoma. Kind of data set: animal or person. It is filed as in vivo. The settings on record: for inhibition in vivo at 600 mg/kg: read-out: % inhibition of tumor growth, oral, 600 mg/kg, DX 8. As for the experimental part: (§1) The compounds were tested in C3H mice bearing a 6C3HED lymphosarcoma, also known as the Gardner lymphosarcoma (GLS), and in a variety of human tumor xenografts in CD1 nu/nu mice, including CX-1, LX-1, HXGC3, and VRC5. The 6C3HED lymphosarcoma was obtained from the Division of Cancer Treatment, National […] Institute, Tumor Bank, maintained at E. G. and G. Mason Research (Worcester, Mass.). The CX-1 human colon carcinoma and the LX-1 human lung carcinoma xenografts were obtained from the National Cancer Institute. The HXGC3 and VRC5 human colon xenografts were obtained from Dr. P. J. Houghton, St. Jude Children's Hospital in Memphis (see Br. J. Cancer, 37, 213 (1978)). First passage tumor was stored in liquid nitrogen using standard techniques. The transplanted tumor was reestablished from the Tumor Bank every six months or as needed. The tumor was maintained by serial passage twice weekly in C3H mice.
(§2) In the procedure the tumor was removed from passage animals and minced into 1- to 3-mm square fragments using sterile techniques. Tumor pieces were checked for sterility using both Antibiotic Medium 1 and Brain Heart Infusion (Difco, Detroit, Mich.). Recipient mice were shaved and tumor pieces were implanted subcutaneously in the auxiliary region by trocar. Drug therapy on the appropriate schedule was initiated on the day after tumor implant for 6C3HED and after a seven (7) day delay for xenografts (or other delay as noted in Table 2). The compound being tested was mixed with 2.5% Emulphor EL620 from GAF Corporation (1:40 dilution in saline). Food and water were provided ad libitium. The drug was administered orally in 0.5 ml of 2.5% Emulphor (unless otherwise indicated). The tumor was measured the day after treatment ended with two dimensional measurements (width and length) of the tumor taken using automated digital calipers interfaced to a microcomputer. Approximate weight for the tumor was calculated using the following formula [Worzalla, J. F., et al., Invest. New Drugs, 8, 241 (1990], (tumor weight in mg)=(width in mm)^2 ×(length in mm)/2.
(§3) At least one control group of an equal number of mice was treated with the same volume of 2.5% Emulphor only. The percent inhibition was determined by subtracting the ratio of the mean tumor size of the test group relative to the control group from one and multiplying the result times 100.
(§4) The results of several experiments in mice bearing a 6C3HED lymphosarcoma (or other tumor where indicated) when the indicated compounds were administered are provided in Table 2. In Table 2, column 1 gives the Example number of the compound used, column 2 lists the dose level in mg/kg, column 3 provides the percent inhibition of tumor growth, column 4 gives the number of mice which died relative to the total number of animals in the group, column 5 gives the method of administration of the compound, and column 6 gives the dosage schedule. The protocol used with other tumors was the same as with the 6C3HED lymphosarcoma.

Data set [2] deals with LX1. It counts as in vivo. The settings on record: oral, BIDX 10. As to the method: as §1, §2, §3, §4
Setting [3] is: Mus musculus, 6C3HED, ip, read-out: % inhibition of tumor growth, IP, 150 mg/kg, DX 8.
[4] abbreviates: Mus musculus, 6C3HED, po, read-out: % inhibition of tumor growth, oral, 150 mg/kg, BIDX 8.
Where [5] appears, read: Mus musculus, 6C3HED, po, read-out: % inhibition of tumor growth, oral, 300 mg/kg, BIDX 8.
[6] abbreviates: Mus musculus, 6C3HED, po, read-out: % inhibition of tumor growth, oral, 25 mg/kg, DX 8.
[7] abbreviates: Mus musculus, 6C3HED, po, read-out: % inhibition of tumor growth, oral, 50 mg/kg, DX 8.

Like-named read-outs stand apart in the source and are kept apart here.

Regarding `CN=S(=O)(NC(=O)Nc1ccc(Cl)cc1)c1ccc(C)cc1` (stereo not shown) [Example 3, N-[[(4-Chlorophenyl)amino]carbonyl]-N',4-dimethylbenzenesulfonimidamide], the inhibition in vivo at 12.5 mg/kg in data set [1] (Mus musculus, 6C3HED, po, read-out: % inhibition of tumor growth, oral, 12.5 mg/kg, BIDX 8) was found to be 58%. For the same molecule, the inhibition in vivo at 25 mg/kg in data set [1] (Mus musculus, 6C3HED, po, read-out: % inhibition of tumor growth, oral, 25 mg/kg, BIDX 8) was determined as 82%. Also, the inhibition in vivo at 50 mg/kg in data set [1] (Mus musculus, 6C3HED, po, read-out: % inhibition of tumor growth, oral, 50 mg/kg, BIDX 8) was found to be 91%. Also, the inhibition in vivo at 75 mg/kg in data set [1] (Mus musculus, 6C3HED, po, read-out: % inhibition of tumor growth, oral, 75 mg/kg, DX 8) came to 81%. Moreover, the inhibition in vivo at 100 mg/kg in data set [1] (Mus musculus, 6C3HED, po, read-out: % inhibition of tumor growth, oral, 100 mg/kg, BIDX 8) came out at 99%. Besides, the inhibition in vivo at 150 mg/kg in data set [1] (Mus musculus, 6C3HED, po, read-out: % inhibition of tumor growth, oral, 150 mg/kg, DX 8) turned out to be 93%. The inhibition in vivo at 200 mg/kg in data set [1] (Mus musculus, 6C3HED, po, read-out: % inhibition of tumor growth, oral, 200 mg/kg, BIDX 8) came to 100%. Also, the inhibition in vivo at 300 mg/kg in data set [1] (Mus musculus, 6C3HED, po, read-out: % inhibition of tumor growth, oral, 300 mg/kg, DX 8) came to 99%. Besides, the inhibition in vivo at 600 mg/kg in data set [1] (Mus musculus, 6C3HED, po) was determined as 100%. The “Tox/Tot (mice which died / total)” value in data set [1] (oral, 12.5 mg/kg, BIDX 8) was 0/10; in data set [1] (oral, 25 mg/kg, BIDX 8), 0/10; in data set [1] (oral, 50 mg/kg, BIDX 8), 0/10; in data set [1] (oral, 75 mg/kg, DX 8), 0/10; in data set [1] (oral, 100 mg/kg, BIDX 8), 0/10; in data set [1] (oral, 150 mg/kg, DX 8), 1/10. The “Tox/Tot (mice which died / total)” value in data set [1] (oral, 200 mg/kg, BIDX 8) was 0/10; in data set [1] (oral, 300 mg/kg, DX 8), 0/10; in data set [1] (oral, 600 mg/kg, DX 8) it was 4/10; in data set [1] (oral, 1200 mg/kg, DX 8), 10/10; in data set [2] (150 mg/kg) it was 8/8; in data set [2] (300 mg/kg), 8/8. Also, the “% inhibition of tumor growth” value is 96% in data set [1] (oral, 150 mg/kg, DX 8); “TOX” in data set [1] (oral, 1200 mg/kg, DX 8); “TOX” in data set [2] (150 mg/kg); “TOX” in data set [2] (300 mg/kg).
With `N=S(=O)(NC(=O)Nc1ccc(Cl)cc1)c1ccc2c(c1)CCC2` (stereo not shown) [Example 54, N-[[(4-chlorophenyl)amino]carbonyl]-5-indanylsulfonimidamide], the “Tox/Tot (mice which died / total)” value is 0/10 in data set [1] (IP, 12.5 mg/kg, BIDX 8); 0/10 in data set [1] (IP, 25 mg/kg, BIDX 8); 0/10 in data set [1] (IP, 50 mg/kg, BIDX 8); 0/10 in data set [1] (IP, 100 mg/kg, BIDX 8); 1/10 in data set [1] (IP, 150 mg/kg, DX 8); 3/10 in data set [1] (IP, 300 mg/kg, DX 8). The “Tox/Tot (mice which died / total)” value is on record as 0/10 in data set [1] (IV, 12.5 mg/kg, DX 8); 0/10 in data set [1] (IV, 25 mg/kg, DX 8); 0/10 in data set [1] (oral, 150 mg/kg, BIDX 8); 0/10 in data set [1] (oral, 150 mg/kg, DX 8); 0/10 in data set [1] (oral, 300 mg/kg, BIDX 8); 0/10 in data set [1] (oral, 300 mg/kg, DX 8). In data set [1] (oral, 600 mg/kg, DX 8), the “Tox/Tot (mice which died / total)” value is listed as 0/10. Besides, the inhibition in vivo at 12.5 mg/kg in data set [1] (Mus musculus, 6C3HED, ip, read-out: % inhibition of tumor growth, IP, 12.5 mg/kg, BIDX 8) was 6%; in data set [1] (Mus musculus, 6C3HED, iv, read-out: % inhibition of tumor growth, IV, 12.5 mg/kg, DX 8) it was 3%. The inhibition in vivo at 25 mg/kg in data set [1] (Mus musculus, 6C3HED, ip, read-out: % inhibition of tumor growth, IP, 25 mg/kg, BIDX 8) was 30%; in data set [1] (Mus musculus, 6C3HED, iv, read-out: % inhibition of tumor growth, IV, 25 mg/kg, DX 8), 19%. In addition, the inhibition in vivo at 50 mg/kg in data set [1] (Mus musculus, 6C3HED, ip, read-out: % inhibition of tumor growth, IP, 50 mg/kg, BIDX 8) was 44%. Besides, in data set [1] (Mus musculus, 6C3HED, ip, read-out: % inhibition of tumor growth, IP, 100 mg/kg, BIDX 8), the inhibition in vivo at 100 mg/kg was 70%. The values for the inhibition in vivo at 150 mg/kg in data set [1] (setting [3]) and in data set [1] (setting [4]) were 86% and 22%, respectively. Besides, the inhibition in vivo at 300 mg/kg worked out at 94% in data set [1] (Mus musculus, 6C3HED, ip, read-out: % inhibition of tumor growth, IP, 300 mg/kg, DX 8) and 33% in data set [1] (setting [5]). Moreover, in data set [1] (Mus musculus, 6C3HED, po), the inhibition in vivo at 600 mg/kg was 34%.
Take `CN=S(=O)(NC(=O)Nc1ccc(Cl)cc1)c1ccc2c(c1)CCC2` (stereo not shown) [Example 55, N-[[(4-chlorophenyl)amino]carbonyl]-N'-methyl-5-indanylsulfonimidamide]: the inhibition in vivo at 75 mg/kg in data set [1] (Mus musculus, 6C3HED, po, read-out: % inhibition of tumor growth, oral, 75 mg/kg, BIDX 8) was 70%. Moreover, in data set [1] (setting [4]), the inhibition in vivo at 150 mg/kg was found to be 75%. In addition, the “Tox/Tot (mice which died / total)” value in data set [1] (oral, 75 mg/kg, BIDX 8) was 0/10; in data set [1] (oral, 150 mg/kg, BIDX 8), 1/10.
For the molecule `Cc1cc(S(N)(=O)=NC(=O)Nc2ccc(Cl)cc2)cc(C)c1Cl` (stereo not shown) [Example 61], the “Tox/Tot (mice which died / total)” value was 2/10 in data set [1] (IP, 150 mg/kg, DX 8); 10/10 in data set [1] (IP, 300 mg/kg, DX 8); 0/10 in data set [1] (oral, 150 mg/kg, BIDX 8); 0/10 in data set [1] (oral, 300 mg/kg, BIDX 8). For the same molecule, in data set [1] (IP, 300 mg/kg, DX 8), the “% inhibition of tumor growth” value is “TOX”. Also, the inhibition in vivo at 150 mg/kg in data set [1] (setting [3]) was found to be 72%; in data set [1] (setting [4]), 0%. In addition, in data set [1] (setting [5]), the inhibition in vivo at 300 mg/kg amounted to 0%.
Regarding `CNS(=O)(=NC(=O)Nc1ccc(Cl)cc1)c1ccc(C)c(C)c1` (stereo not shown) [Example 62], the inhibition in vivo at 25 mg/kg in data set [1] (setting [6]) was found to be 98%. For the same molecule, in data set [1] (setting [7]), the inhibition in vivo at 50 mg/kg came out at 99%. Besides, the “Tox/Tot (mice which died / total)” value is on record as 0/10 in data set [1] (oral, 25 mg/kg, DX 8) and 2/10 in data set [1] (oral, 50 mg/kg, DX 8).
On the same counts, the results for `CC(=O)N(C)S(=O)(=NC(=O)Nc1ccc(Cl)cc1)c1ccc(C)c(C)c1` (stereo not shown) [Example 63] are 79%, 95%, 0/10 and 0/10.
Turning to `CNS(=O)(=NC(=O)N(C)c1ccc(Cl)cc1)c1ccc(C)cc1` (stereo not shown) [Example 65], the inhibition in vivo at 150 mg/kg in data set [1] (setting [4]) was 91%. Also, in data set [1] (setting [5]), the inhibition in vivo at 300 mg/kg is 97%. Also, the “Tox/Tot (mice which died / total)” value in data set [1] (oral, 150 mg/kg, BIDX 8) is reported as 0/10; in data set [1] (oral, 300 mg/kg, BIDX 8), 0/10.
